# Experimental data taken from publication PMC4601027, “Structural Analysis of the Pin1-CPEB1 interaction and its potential role in CPEB1 degradation” (Scientific Reports, 2015).
# Non-standard residues stand in square brackets, D forms with d. Residues, ends and D or L forms follow the SMILES beside them. pS = N[C@@H](COP(=O)(O)O)C(=O)O
# Columns and labels:
# [1] = molecular target: T1, Pin1 WW domain (Uniprot: Q13526, Residues: 1–41) (Homo sapiens, UniProt Q13526); assay: ITC titration of CPEB1 phosphopeptides with Pin1 WW domain; settings: nano ITC calorimeter, 12 °C or 25 °C, 20 mM Tris-HCl pH 7.0, 130 mM NaCl, single binding site model, repeated at least twice
# T1 construct: The Pin1 WW domain (Uniprot: Q13526, Residues: 1–41); His6 (N); GST (N); made in house
# T1 sequence (Q13526 1-41): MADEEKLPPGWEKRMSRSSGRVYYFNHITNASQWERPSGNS
# Text: (§1) Pin1 interacts with phosphorylated CPEB1 in Xenopus oocytes, as well as in mammalian cells. […] Therefore, to mimic the in vivo scenario, we measured the affinities of the interactions between recombinant proteins (the isolated WW domain and also the full-length protein) with several peptides containing the phosphorylation sites within CPEB1. These peptides were synthesized using Fmoc Solid-Phase Peptide Synthesis (SPPS) (Supplementary Fig 2). […] All affinities were found in the low μM range (Fig. 2a,b), with the exception of the pS423 site of CPEB1, located in the linker region between the RRM domains, whose affinity was considerably lower than the rest. Our results reveal that the peptides containing pS184 and pS210—the latter known to be essential for CPEB degradation—display the best affinities for Pin1 in vitro. The affinity of the phosphorylation-dependent interaction was about 10-fold higher than that of the unphosphorylated CPEB N-terminal counterparts. In addition, in most of the peptides examined, similar binding affinities and stoichiometries (1:1) were observed using either the full-length Pin1 protein or the truncated WW domain. Only when analyzing the interaction of CPEB1 pS210 and the full-length Pin1 protein we obtained a stoichiometry below 1 (n = 0.85), which cannot be attributed to systematic errors in the determination of the protein concentration. This discrepancy might indicate that in addition to the main complex consisting of a 1:1 protein/peptide ratio, a small population with a 1:2 stoichiometry is also present in solution.
# ITC measurements were performed using a nano ITC calorimeter (TA Instruments) at 12 °C or 25 °C. Protein samples were prepared in 20 mM Tris-HCl pH 7.0 and 130 mM NaCl. All samples were degassed and centrifuged prior to the experiments. Protein concentration was measured in a NanoDrop™ 2000 measuring the UV absorption at 280 nm. Peptide concentration was determined by amino acid analysis. […]
# [2] = molecular target: T2, Pin1 full-length (Homo sapiens, UniProt Q13526); assay: ITC titration of CPEB1 phosphopeptides with Pin1 full-length; assay type: binding; settings: for Kd: nano ITC calorimeter, 12 °C or 25 °C, 20 mM Tris-HCl pH 7.0, 130 mM NaCl, repeated at least twice, for pS210 one Pin1 molecule could interact with two peptides, read-out: Pin1 FL KD
# T2 construct: The full-length Pin1 clone was obtained from Addgene; His6 (N); provided by Dustin Maly's Lab
# T2 sequence (Q13526 whole entry): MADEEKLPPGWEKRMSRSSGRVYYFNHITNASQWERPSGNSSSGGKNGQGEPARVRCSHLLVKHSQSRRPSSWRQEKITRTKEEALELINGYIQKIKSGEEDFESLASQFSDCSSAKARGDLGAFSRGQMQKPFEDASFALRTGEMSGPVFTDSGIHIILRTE
# Text: as §1
# ITC measurements were performed using a nano ITC calorimeter (TA Instruments) at 12 °C or 25 °C. Protein samples were prepared in 20 mM Tris-HCl pH 7.0 and 130 mM NaCl. All samples were degassed and centrifuged prior to the experiments. Protein concentration was measured in a NanoDrop™ 2000 measuring the UV absorption at 280 nm. Peptide concentration was determined by amino acid analysis. Depending on the expected affinity, sigmoidal curves were optimized by injecting 10- to 15-fold concentrated peptide in 16 × 3 μL steps in a cell containing 190 μL of protein at an adjusted concentration of between 150 and 200 μM , stirring at 200 revolutions per minute (rpm). The delay between injections was set to be of 3 minutes. The NanoAnalyze software (TA Instruments) was used to determine the binding isotherms, assuming a single binding site in each molecule (except for the Pin1 full-length interaction with the CPEB1 pS210 peptide, where one Pin1 molecule could interact with two peptides). Baseline controls were acquired with buffer and pure peptide solutions. Measurements were repeated at least twice.
Kd [1],Kd [2],"stoichiometry (n), full-length Pin1 ([2]; protein/peptide stoichiometry)",SMILES
71.3 ± 9.3 µM,84.3 ± 10.6 µM,,CSCC[C@H](NC(=O)[C@H](CO)NC(C)=O)C(=O)N[C@@H](CC(C)C)C(=O)N[C@@H](CC(N)=O)C(=O)N[C@@H](COP(=O)(O)O)C(=O)N1CCC[C@H]1C(=O)N[C@@H](CCSC)C(=O)NCC(=O)N[C@@H](CCCCN)C(N)=O [CPEB1 pS138] (Ac-SMLN[pS]PMGK-NH2; N-terminus assumed)
75.4 ± 12.7 µM,83.5 ± 11.5 µM,,CC(=O)NCC(=O)N[C@@H](CCCCN)C(=O)N1CCC[C@H]1C(=O)N[C@@H](COP(=O)(O)O)C(=O)N1CCC[C@H]1C(=O)N[C@@H](CC(C)C)C(=O)NCC(=O)N[C@@H](Cc1ccccc1)C(=O)N[C@@H](CC(C)C)C(=O)N[C@H](C(N)=O)[C@@H](C)O [CPEB1 pS144] (Ac-GKP[pS]PLGFLT-NH2; N-terminus assumed)
,,0.85,CC[C@H](C)[C@H](NC(=O)[C@H](CCCNC(=N)N)NC(=O)[C@H](CC(C)C)NC(C)=O)C(=O)N[C@@H](COP(=O)(O)O)C(=O)N1CCC[C@H]1C(=O)N1CCC[C@H]1C(=O)N[C@@H](CC(C)C)C(=O)N[C@@H](Cc1c[nH]cn1)C(=O)N[C@@H](Cc1ccccc1)C(=O)N[C@@H](CC(C)C)C(=O)N1CCC[C@H]1C(=O)N[C@@H](CC(C)C)C(=O)NCC(=O)NCC(N)=O [CPEB1 pS210] (Ac-LRI[pS]PPLHFLPLGG-NH2; N-terminus assumed)
47.6 ± 7.6 µM,42.4 ± 8.7 µM,,CC(=O)N[C@@H](C)C(=O)N[C@@H](C)C(=O)N[C@H](C(=O)N[C@H](C(=O)N[C@@H](COP(=O)(O)O)C(=O)N1CCC[C@H]1C(=O)N[C@@H](CC(C)C)C(=O)NCC(N)=O)C(C)C)[C@@H](C)O [CPEB1 pS248] (Ac-AATV[pS]PLG-NH2; N-terminus assumed)
